Among the data in BindingDB's records for patent US10308662 (Signal Rx Pharmaceuticals, 2019) are IC50 values, retold here.

In the test the target is T1, Bromodomain-containing protein 4 [349-460] (Homo sapiens, UniProt O60885).
T1 construct: 349-460
Put plainly: in vitro […] inhibition assay.

Source text: Inhibitory activity can be determined routinely using known methods and also from commercial vendors offering this service for kinases and bromodomain proteins. […] The activity of a compound of the invention as an inhibitor of a bromodomain-containing protein, such as a BET protein, such as BRD2, BRD3, BRD4, and/or BRDT, or an isoform or mutant thereof, may be determined in vitro, in vivo, or in a cell line. In vitro assays include assays that determine inhibition of bromodomain-containing proteins. Alternatively, inhibitor binding may be determined by running a competition experiment where a provided compound is incubated with a bromodomain-containing protein, such as a BET protein bound to known ligands, labeled or unlabeled. For example, bromodomain inhibition can be determined in vitro using Alpha Screen Technology (http://www.reactionbiology.com/webapps/site/NewsPDFs/Bromodomain%20Assay%20Platform%20for%20Drug%20Screening%20and%20Discovery.pdf).

In turn, `CCOC(=O)c1ccc(-c2csc3c(=O)cc(N4CCSCC4)oc23)cc1` [US10308662, Compound 125] showed an IC50 of 1.87 µM.

In general, IC50 refers to the midpoint of a concentration-inhibition curve. A high value points to a need for much substance.
